Where two headings read alike, the source gives them in different places. Where a SMILES comes first, the peptide text is derived from it. Where no end group is shown, it is not given here. [ ]: non-standard residue; d: D form. The star is where a group is joined. Hexanoyl = CCCCCC(=O)*; Aib = CC(C)(N)C(=O)O
Tests used:
[1] = target: T1, rat VPAC1 receptor (Rattus norvegicus, UniProt P30083); assay: Competition binding on recombinant rat VPAC1 receptor expressed in CHO cells, 125I-VIP tracer; parameters: expressed in transfected cells; host or cells: CHO cells, crude membranes
T1 sequence (P30083 31-459): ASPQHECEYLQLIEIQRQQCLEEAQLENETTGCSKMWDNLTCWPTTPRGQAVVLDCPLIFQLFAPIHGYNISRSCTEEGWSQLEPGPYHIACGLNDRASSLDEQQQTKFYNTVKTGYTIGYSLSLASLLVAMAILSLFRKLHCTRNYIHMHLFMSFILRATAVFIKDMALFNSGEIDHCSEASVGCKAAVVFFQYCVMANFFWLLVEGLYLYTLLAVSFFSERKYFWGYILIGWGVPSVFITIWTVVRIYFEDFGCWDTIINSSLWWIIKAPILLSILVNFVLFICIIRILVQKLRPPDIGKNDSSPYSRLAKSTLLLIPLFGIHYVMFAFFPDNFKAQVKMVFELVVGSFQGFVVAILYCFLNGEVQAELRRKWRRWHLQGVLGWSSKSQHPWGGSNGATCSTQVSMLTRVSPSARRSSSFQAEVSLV
Protocol: The peptide samples are stored frozen and thawed prior to the assay. […] All peptide sample and reference compound dilutions are performed in PBS. Peptides solutions are kept in the cold room for four days. Stock solutions are stored at −80° C. New dilution curves are prepared every week.
Each assay is done in duplicate and performed on two different membrane preparations.

[2] = Rat serum stability studies (remaining active peptide by DiscoveRx cAMP on CHO-VPAC2 cells); assay type: in vitro ADME
Outline: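 Rat serum, 18 h: +aprotinin aliquot at 4° C, no-aprotinin aliquot at 37° C. Then 30 min RT step, supernatant removed, 1 h shaking at 300 rpm. DiscoveRx cAMP kit on CHO-VPAC2; EC50 from cAMP data vs standards.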

[3] = target: T2, rat VPAC2 receptor (Rattus norvegicus, UniProt P35000); assay: Adenylate cyclase activation on membrane preparations expressing rat VPAC2 receptor; assay type: biochemical; parameters: expressed in transfected cells; host or cells: CHO cells, crude membranes; conditions: for VPAC2 cAMP max: maximal increase in cyclic AMP production (over basal) per minute and per mg protein; for VPAC1/VPAC2 ratio of EC50: rat receptors
T2 sequence (P35000 23-437): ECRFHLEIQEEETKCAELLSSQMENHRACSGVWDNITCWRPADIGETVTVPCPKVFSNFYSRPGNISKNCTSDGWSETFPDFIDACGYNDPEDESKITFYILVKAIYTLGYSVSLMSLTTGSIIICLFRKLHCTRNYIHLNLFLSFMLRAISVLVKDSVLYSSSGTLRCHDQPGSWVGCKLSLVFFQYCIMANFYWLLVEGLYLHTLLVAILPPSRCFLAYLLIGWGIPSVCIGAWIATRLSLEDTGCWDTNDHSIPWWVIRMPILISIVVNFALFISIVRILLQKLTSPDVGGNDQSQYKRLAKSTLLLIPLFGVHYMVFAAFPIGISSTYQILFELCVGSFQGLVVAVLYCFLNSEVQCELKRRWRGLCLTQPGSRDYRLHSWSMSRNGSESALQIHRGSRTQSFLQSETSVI
Protocol: (§1) All studies are performed on crude membranes prepared from three different cell cultures expressing the different recombinant receptors, using methodology that is known in the literature. Duplicate values are obtained for each assay.
(§2) The selectivity of the VPAC2 receptor peptide agonists of the present invention are tested on the rat VPAC1 and VPAC2 receptors recombinantly expressed in CHO cells. The compound of the invention were evaluated in receptor binding & adenylate cyclase activation assays.
(§3) Dose-effect curves of adenylate cyclase activation were generated using the VPAC2 receptor peptide agonists (10^−11 to 10^−6 M, two concentrations per log) of the present invention.

[4] = target: T1, rat VPAC1 receptor; assay: Adenylate cyclase activation on membrane preparations expressing rat VPAC1 receptor; assay type: biochemical; parameters: expressed in transfected cells; host or cells: CHO cells, crude membranes; conditions: for VPAC1 cAMP max: maximal increase in cyclic AMP production (over basal) per minute and per mg protein
Protocol: as §1, §2, §3
Adenylate cyclase activity was determined by the procedure of Salomon et al. (1974), A highly sensitive adenylate cyclase assay. Analytical Biochemistry 58 (1974. Membrane proteins ([…]) are incubated in a total volume of […] containing 0.5 mM [^32P]-ATP, 10 µM GTP, 5 mM MgCl2, 0.5 mM EGTA, 1 mM cAMP, 1 mM theophylline, 10 mM phospho(enol)pyruvate, […] pyruvate kinase and 30 mM Tris-HCl at a final pH of 7.8. The reaction is initiated by membrane addition and is terminated after 15 min incubation at 37° C. by addition of 0.5 ml of 0.5% sodium dodecyl-sulfate solution containing 0.5 mM ATP, 0.5 mM cAMP and […] [^3H]-cAMP. cAMP was separated from ATP by two successive chromatographies on Dowex 50Wx8 and neutral alumina.

[5] = in vivo; conditions: Wistar, rat, iv
Protocol: (§4) An IVGTT with glucose is given immediately after T=0 to 6 animals per condition. Samples are taken at 0, 2, 4, 6, and 10 minutes after injection.
(§5) For cell handling, Plate 50,000 cells/well and keep in culture over night. Wash cell twice in PBS and add 50 μl/well stimulation medium consisting of PBS+1.2 MgCl2, 1.3 CaCl2, 2 glucose and 0.5 IBMX. Incubate 15 minutes and add 50 μl/well of the plasma samples (see layout below). Incubate 30 minutes, remove the supernatant and proceed as normal with the DiscoveRx assay. Prepare plates in duplicate. Protease and peptidase inhibitor are present in all plasma samples.

[6] = target: T2, rat VPAC2 receptor; assay: DiscoveRx in vitro potency, CHO-PO cells transiently transfected with rat VPAC 2 receptor DNA; assay type: cell-based; parameters: expressed in transfected cells; host or cells: CHO-PO, transient
Protocol: Also, the cells are washed twice. […] The stimuli are present for 30 minutes. Then, the assay buffer is gently removed.

[7] = rat, in vivo, iv; for Exposure (10 μg/kg, Vdist in μg/(nM * kg)): 10 ug/kg
Protocol: as §4, §5

[8] = IC50 of tracer inhibition, 125I-VIP, with standard error, read-out: RAT VPAC1 IC50 (log M) (converted)
[9] = adenylate cyclase activation, rat VPAC2 membranes, with standard error, read-out: VPAC2 EC50 (log M) (converted)
[10] = adenylate cyclase activation, rat VPAC1 membranes, with standard error, read-out: VPAC1 EC50 (log M) (converted)

CCCCCC(=O)N[C@@H](Cc1c[nH]cn1)C(=O)N[C@@H](CO)C(=O)N[C@@H](CC(=O)O)C(=O)N[C@@H](C)C(=O)N[C@H](C(=O)N[C@@H](Cc1ccccc1)C(=O)N[C@H](C(=O)N[C@@H](CC(=O)O)C(=O)N[C@@H](CC(N)=O)C(=O)N[C@@H](Cc1ccc(O)cc1)C(=O)N[C@H](C(=O)N[C@@H](CCCNC(=N)N)C(=O)N[C@@H](CC(C)C)C(=O)N[C@@H](CCCNC(=N)N)C(=O)NC(C)(C)C(=O)N[C@@H](CCC(N)=O)C(=O)N[C@@H](CC(C)C)C(=O)N[C@@H](C)C(=O)N[C@@H](C)C(=O)NC(C)(C)C(=O)N[C@@H](CCCCN)C(=O)N[C@@H](Cc1ccc(O)cc1)C(=O)N[C@@H](CC(C)C)C(=O)N[C@@H](CCC(N)=O)C(=O)N[C@@H](CO)C(=O)N[C@H](C(=O)N[C@@H](CCCCN)C(=O)N[C@@H](CC(N)=O)C(=O)N[C@@H](CCCCN)C(=O)NCC(=O)NCC(=O)N1CCC[C@H]1C(=O)N[C@@H](CO)C(=O)N[C@@H](CO)C(=O)NCC(=O)N[C@@H](C)C(=O)N1CCC[C@H]1C(=O)N1CCC[C@H]1C(=O)N1CCC[C@H]1C(=O)N[C@@H](CO)C(=O)O)[C@@H](C)CC)[C@@H](C)O)[C@@H](C)O)C(C)C [Agonist P292] (Hexanoyl-HSDAVFTDNYTRLR[Aib]QLAA[Aib]KYLQSIKNKGGPSSGAPPPS-OH; C-terminus assumed)
IC50 [1, 8]: 204 nM | Rat Serum Stability (estimated purity in % after 18 hours) [2]: 33.43% | EC50 [3, 9]: 0.115 nM | VPAC2 cAMP max [3]: 79.1 | VPAC1/VPAC2 ratio of EC50 ([3]; adenylate cyclase activation): 100 | EC50 [4, 10]: 11.5 nM | VPAC1 cAMP max [4]: 124 | AUC(0-t) ([5]; 0.5 ug/kg): 0.0167 nM·h | Cmax ([5]; 0.5 ug/kg): 0.12 nM | half-life ([5]; 0.5 ug/kg): 15 min | AUC(0-t) ([5]; 10 ug/kg): 0.688 nM·h | Cmax ([5]; 10 ug/kg): 5.37 nM | half-life ([5]; 10 ug/kg): 5.5 min | EC50 [6]: 0.07 nM | Exposure (0.5 μg/kg, Vdist in μg/(nM * kg)) ([7]; 0.5 ug/kg): 9.5 µg/nM/kg | Exposure (10 μg/kg, Vdist in μg/(nM * kg)) [7]: 1.9 µg/nM/kg

H-MHSDAVFTDNYTRLRKQVAAKKYLQSIKNKRYGGPSSGAPPPS [Agonist P104]
IC50 [1]: 1760 nM | Rat Serum Stability (estimated purity in % after 18 hours) ([2]; 10 μM peptide in rat serum, 37° C., 18 hours, versus 4° C. aliquot with aprotinin): 1.01% | EC50 [3]: 1.01 nM | VPAC2 cAMP max [3]: 129 ± 19 | VPAC1/VPAC2 ratio of EC50 ([3]; adenylate cyclase activation): 184 | EC50 [4]: 186 nM | VPAC1 cAMP max [4]: 195 ± 18

Hexanoyl-HSDAVFTDNYTRLR[Aib]QVAAK[Aib]YLQSIKNKRYGGPSSGAPPPS [Agonist P264]
Rat Serum Stability (Estimated purity in % after 72 hours) [2]: 0.9% | Rat Serum Stability (estimated purity in % after 18 hours) [2]: 19.22% | AUC(0-t) ([5]; 10 ug/kg): 0.06 nM·h | Cmax ([5]; 10 ug/kg): 0.96 nM | half-life ([5]; 10 ug/kg): 1.3 min | EC50 [6]: 0.1 nM | Exposure (10 μg/kg, Vdist in μg/(nM * kg)) [7]: 5.1 µg/nM/kg

Hexanoyl-HSDAVFTDNYTRLR[Aib]QVAA[Aib]KYLQSIKNKRYGGPSSGAPPPS [Agonist P261]
IC50 [1, 8]: 129 nM | Rat Serum Stability (estimated purity in % after 18 hours) [2]: 27.06% | EC50 [3, 9]: 0.0631 nM | VPAC2 cAMP max [3]: 78.5 | VPAC1/VPAC2 ratio of EC50 ([3]; adenylate cyclase activation): 200 | EC50 [4, 10]: 12.6 nM | VPAC1 cAMP max [4]: 126 | AUC(0-t) ([5]; 10 ug/kg): 0.898 nM·h | Cmax ([5]; 10 ug/kg): 12.1 nM | half-life ([5]; 10 ug/kg): 3.2 min | EC50 [6]: 0.04 nM | Exposure (10 μg/kg, Vdist in μg/(nM * kg)) [7]: 0.8 µg/nM/kg

Hexanoyl-HSDAVFTDNYTRLLAKLALQKYLQSIKNKRYGGPSSGAPPPS [Agonist P119]
IC50 [1, 8]: 29.2 nM | EC50 [3, 9]: 0.0912 nM | VPAC2 cAMP max [3]: 133 ± 18 | VPAC1/VPAC2 ratio of EC50 ([3]; adenylate cyclase activation): 32 | EC50 [4, 10]: 2.9 nM | VPAC1 cAMP max [4]: 207 ± 13

Hexanoyl-HSDAVFTDNYTRLRKQVAAKKYLQSIKNKRYGGPSSGAPPPS [Agonist P31]
IC50 [1, 8]: 210 nM | EC50 [3, 9]: 0.145 nM | VPAC2 cAMP max [3]: 134 ± 12 | VPAC1/VPAC2 ratio of EC50 ([3]; adenylate cyclase activation): 174 | EC50 [4, 10]: 25.2 nM | VPAC1 cAMP max [4]: 200 ± 13 | AUC(0-t) ([5]; 10 ug/kg): 0.308 nM·h | Cmax ([5]; 10 ug/kg): 4.37 nM | half-life ([5]; 10 ug/kg): 12 min | Exposure (10 μg/kg, Vdist in μg/(nM * kg)) [7]: 10 µg/nM/kg

— patent US20080026996A1, “Selective Vpac2 Receptor Reptide Agonists” (ELI LILLY AND COMPANY, priority 2004, published 2008)
